{"source": "patent US20220088020A1", "about": "“TREATMENT OF ALOPECIA AREATA” (LEO PHARMA A/S, priority 2015, published 2022)", "key": {"[1]": {"tested_on": "C3H/HeJ mouse alopecia model", "assay": "Experiment 2: promotion of hair growth in C3H/HeJ mouse alopecia model", "type": "in vivo", "conditions": "Compound A ointment 0.3% or 3% by weight, 50 μL applied to dorsal region once a day for 84 days; median of each group, FIG. 2", "protocol": "(§1) An effect of promoting hair growth by Compound A was evaluated using a C3H/HeJ mouse alopecia model (Non-Patent Literature 1).\nA skin specimen having a diameter of 2 cm was prepared from a retired C3H/HeJJcI mouse (CLEA Japan, Inc.) which had spontaneously developed alopecia universalis, and was grafted into a dorsal region of each of eight-week-old female C3H/HeJJcI mice (CLEA Japan, Inc.). […]\nThe Hair Growth Index (HGI) in the dorsal region of each of the mice was determined on day 1, day 19, day 29, day 43, day 57, day 71 and day 85. The HGI for each of the mice was calculated by measuring, with naked eyes, the level of the state of hair growth (score; 0: no hair, 1: stubble, short broken hairs, 2: sparse intermediate length hairs, 3: normal length and density hairs) and the percentage (%) of the skin area in which each level of state of hair growth occurred, determining the product of the level of the state of hair growth (score) with the percentage (%) of the skin area in which its level of the state of hair growth occurred, and then summing all of the values of the products."}, "JAK": {"tested_on": "JAK", "conditions": "JAK = one or more of JAK1, JAK2, JAK3, TYK2; described in Patent Literature 1 and 2; cited from earlier work"}, "[2]": {"tested_on": "C3H/HeJ mouse alopecia model", "assay": "Experiment 1: promotion of hair growth in C3H/HeJ mouse alopecia model", "type": "in vivo", "conditions": "Compound A 1% or 3% by weight in carrier, 50 μL applied to dorsal region once a day for 78 days; median of each group, FIG. 1", "protocol": "as §1\nA skin specimen having a diameter of 2 to 2.5 cm was prepared from a retired C3H/HeJJcI mouse (CLEA Japan, Inc.) which had spontaneously developed alopecia universalis, and was grafted into a dorsal region of each of eight-week-old female C3H/HeJJcI mice (CLEA Japan, Inc.). Twenty weeks after the surgery, mice which developed alopecia throughout the whole bodies thereof were selected, and a carrier, 1% by weight of a test substance, 3% by weight of the test substance or a control substance was applied to the dorsal region at a volume of 50 μL once a day for 78 days. Day 1 was a day on which the application started. The carrier used was a mixture which contained white soft paraffin, hard paraffin and squalane at a blend ratio of 85:5:10. Compound A was used as the test substance. A betamethasone valerate ointment (0.12%) was used as the control substance.\nThe Hair Growth Index (HGI) in the dorsal region of each of the mice was determined on day 1, day 7, day 15, day 29, day 43, day 57, day 71 and day 79. […]"}}}
{"smiles": "C[C@H]1CN(C(=O)CC#N)[C@]12CCN(c1ncnc3[nH]ccc13)C2", "note": "[Compound A, 3-[(3S,4R)-3-methyl-6-(7H-pyrrolo[2,3-d]pyrimidin-4-yl)-1,6-diazaspiro[3.4]octan-1-yl]-3-oxopropanenitrile]", "values": [{"measurement": "Hair Growth Index (HGI) in the dorsal region", "setting": "[1]", "result": "promotion of hair growth"}, {"measurement": "JAK inhibition", "setting": "JAK", "result": "inhibit JAK"}, {"measurement": "Hair Growth Index (HGI) in the dorsal region", "setting": "[2]", "result": "promotion of hair growth"}]}
